Measurements published in patent US20070071677A1 (priority 2003, published 2007).
Ends that are not written are not given here.

Tested on: cell lines described in Example 3 (293T, HeLa, CT26, MCF-7)
Test: Cytotoxicity of LMWP peptides, MTT colorimetric assay
Format: cell-based, human, murine
Conditions: FIG. 5; TAT at 5.0 mM and 10.0 mM
Protocol: Cytotoxicity of the LMWP peptides and TDSP5-gelonin conjugates were examined using the cell lines described in Example 3. In brief, cells grown to 75% confluency were incubated with various concentrations of LMWP peptides, TAT peptide, TDSP5-gelonin conjugate, or TAT-gelonin conjugates. Cell proliferation was measured over 3 days, and cytotoxicity was determined using a colorimetric assay, which was performed by removing the cell culture medium and replacing it with PBS containing 5 mg/ml of 3-(4,5-dimethylthiazol-2-yl)-2,5-diphenyltetrazolium bromide (MTT). The absorbance of the cell culture medium following MTT addition was measured at 540 nm, and the survival ratio was determined by the ratio of the absorbance of sample-treated cells to that of control cells.

Substance | cell cytotoxicity (in words)
ASRRRRRGGRRRR [TDSP4] | little or no toxicity
PRRRRR [TDSP2] | little or no toxicity
PRRRRSSRRP [TDSP3] | little or no toxicity
VSRRRRRRGGRRRR [TDSP5] | little or no toxicity
